Test results published in ChEMBL document CHEMBL1147802, “Diarylacetylene piperidinyl amides as novel anxiolytics” (Bioorg Med Chem Lett, 2006).

Tests used:
[1] = biological target: T1, Substance-K receptor (Homo sapiens) (UniProt P21452); assay: Inhibition of human NK2 receptor expressed in CHO cells at 10 uM; type: cell-based
T1 sequence (whole entry): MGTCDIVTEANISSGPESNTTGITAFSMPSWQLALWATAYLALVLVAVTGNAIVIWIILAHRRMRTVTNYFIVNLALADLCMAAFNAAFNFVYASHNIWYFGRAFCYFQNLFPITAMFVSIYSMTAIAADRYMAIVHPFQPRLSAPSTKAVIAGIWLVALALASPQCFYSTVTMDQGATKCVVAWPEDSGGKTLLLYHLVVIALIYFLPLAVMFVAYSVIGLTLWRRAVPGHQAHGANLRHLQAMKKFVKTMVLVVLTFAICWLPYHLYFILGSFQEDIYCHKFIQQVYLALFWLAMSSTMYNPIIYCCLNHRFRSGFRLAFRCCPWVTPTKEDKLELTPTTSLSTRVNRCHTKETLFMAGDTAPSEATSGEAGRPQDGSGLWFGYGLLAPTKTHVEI

[2] = biological target: T2, Substance-K receptor (Homo sapiens, UniProt P21452); assay: Inhibition of human NK2 receptor expressed in CHO cells; type: cell-based
T2 sequence (P21452 whole entry): T1 sequence (whole entry)

[3] = biological target: T3, Substance-P receptor (Homo sapiens, UniProt P25103); assay: Inhibition of human NK1 receptor expressed in U373MG cells at 10 uM; type: cell-based; conditions: U-373MG ATCC
T3 sequence (P25103 whole entry): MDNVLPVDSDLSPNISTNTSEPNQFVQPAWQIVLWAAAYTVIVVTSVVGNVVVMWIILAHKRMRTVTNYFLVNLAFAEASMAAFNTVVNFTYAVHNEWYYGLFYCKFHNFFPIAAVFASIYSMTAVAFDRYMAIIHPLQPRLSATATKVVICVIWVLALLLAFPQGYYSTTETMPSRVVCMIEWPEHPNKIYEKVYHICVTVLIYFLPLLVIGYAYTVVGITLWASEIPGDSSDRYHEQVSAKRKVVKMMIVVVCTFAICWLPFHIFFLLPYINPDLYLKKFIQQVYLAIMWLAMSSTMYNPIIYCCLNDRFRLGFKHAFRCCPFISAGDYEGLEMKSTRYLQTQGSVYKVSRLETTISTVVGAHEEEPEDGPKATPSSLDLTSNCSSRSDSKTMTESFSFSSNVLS

[4] = biological target: T3, Substance-P receptor; assay: Inhibition of human NK1 receptor expressed in U373MG cells; type: cell-based, U-373MG ATCC
[5] = Oral bioavailability in rat at 3 mg/kg, po; type: ADME, organism-based; conditions: in vivo
[6] = Stability in human liver microsomes after 90 min; type: ADME, Microsome; conditions: read-out: Stability
[7] = Stability in rat liver microsomes after 90 min; type: ADME, Microsome; conditions: read-out: Stability
[8] = system: Mus musculus; assay: Anxiolytic activity in orally dosed mouse assessed as reversal of DOI-induced head shake; type: functional; conditions: po, read-out: MED
[9] = system: Mus musculus; assay: Anxiolytic activity in mouse after oral administration by EPM test; type: functional; conditions: read-out: MED
[10] = Oral bioavailability in rat at 10 mg/kg, po; type: ADME, organism-based; conditions: in vivo
[11] = species: Homo sapiens; assay: Inhibition of GABA transporter at 10 uM
[12] = Half life in rat at 40 mg/kg, po; type: ADME, organism-based; design: dose 40 mg/kg, route oral; conditions: in vivo
[13] = Oral bioavailability in rat at 40 mg/kg, po; type: ADME, organism-based; conditions: in vivo
[14] = Oral bioavailability in rat at 15 mg/kg, po; type: ADME, organism-based; conditions: in vivo
[15] = Stability in rat liver microsomes after 60 min; type: ADME, Microsome; conditions: read-out: Stability
[16] = Half life in cynomolgus monkey; type: ADME, organism-based, Macaca fascicularis; conditions: in vivo
[17] = Stability in human liver microsomes after 60 min; type: ADME, Microsome; conditions: read-out: Stability
[18] = Bioavailability in cynomolgus monkey; type: ADME, organism-based, Macaca fascicularis; conditions: in vivo
[19] = Half life in rat at 15 mg/kg, po; type: ADME, organism-based; design: dose 15 mg/kg, route oral; conditions: in vivo

Row | inhibition [1] [%] | IC50 [2] [nM] | inhibition [3] [%] | IC50 [4] [nM] | remaining at 1.5 h [6] [%] | remaining at 1.5 h [7] [%] | SMILES | minimal effective dose [8] [mg/kg] | minimal effective dose [9] [mg/kg] | other results
1 | 96 | 1000 | 96 | 1000 | – | – | O=C(CC1CCN(C(=O)c2cccc(C#Cc3ccccn3)c2)CC1)Nc1ccc(F)cc1 | – | – | –
2 | – | – | 18 | – | 80 | 97 | O=C(CC1CCN(C(=O)c2cccc(C#Cc3ccccn3)c2)CC1)Nc1ccc(O)cc1 | 20 | 3 | bioavailability [5]: < 2%; bioavailability [10]: < 2%
3 | 11 | – | 37 | – | 35 | 63 | O=C(CC1CCN(C(=O)c2cccc(C#Cc3ccccn3)c2)CC1)Nc1ccccc1 | 20 | 1 | inhibition [11]: 60%; half-life [12]: 3.1 h; bioavailability [13]: 65%
4 | 97 | 550 | 96 | 640 | – | – | O=C(CC1CCN(C(=O)c2cccc(C#Cc3ccccn3)c2)CC1)Nc1ccccc1F | – | – | –
5 | 8 | – | 16 | – | – | – | O=C(CC1CCN(C(=O)c2cccc(C#Cc3ccccn3)c2)CC1)Nc1ccc(F)cc1F | 0.1 | 1 | bioavailability [14]: 7%; remaining at 1 h [15]: 0.1%; half-life [16]: 3.1 h; remaining at 1 h [17]: 15%; bioavailability [18]: 38%; half-life [19]: 2.7 h
6 | 7 | – | 28 | – | – | – | O=C(CC1CCN(C(=O)c2cccc(C#Cc3ccccc3)c2)CC1)Nc1ccccc1 | – | – | –
